# Source: PMC3479967 (Evidence-based Complementary and Alternative Medicine : eCAM, 2012)
# Where two headings read alike, the source gives them in different places.
# Biological target: T1, UGT1A4 (Homo sapiens, UniProt P22310)
# T1 construct: purchased BD Gentest Corp. (Woburn, MA, USA); host or cells: baculovirus-infected insect cells
# T1 sequence (P22310 29-534): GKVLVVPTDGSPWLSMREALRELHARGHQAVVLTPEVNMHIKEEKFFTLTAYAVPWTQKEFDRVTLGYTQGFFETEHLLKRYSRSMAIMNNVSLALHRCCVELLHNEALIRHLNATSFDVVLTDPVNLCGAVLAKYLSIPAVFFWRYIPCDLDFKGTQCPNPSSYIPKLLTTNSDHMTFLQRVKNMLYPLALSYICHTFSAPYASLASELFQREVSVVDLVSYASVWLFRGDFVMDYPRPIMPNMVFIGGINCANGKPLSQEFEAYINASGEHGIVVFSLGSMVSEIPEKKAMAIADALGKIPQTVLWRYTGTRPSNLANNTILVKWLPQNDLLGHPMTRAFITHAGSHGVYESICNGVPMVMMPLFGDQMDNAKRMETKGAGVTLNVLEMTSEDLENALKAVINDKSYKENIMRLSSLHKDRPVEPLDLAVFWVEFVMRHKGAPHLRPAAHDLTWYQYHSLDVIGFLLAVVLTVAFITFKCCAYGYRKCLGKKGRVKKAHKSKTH
# Assay: Inhibition of recombinant UGT1A4 activity (TFP glucuronidation)
# Format: biochemical
# Protocol: TFP was used as the substrate for UGT1A4. Trifluoperazine glucuronide (TFPG) formation was measured using a modification of the method reported. […] Reactions were initiated by the addition of UDPGA and incubations were performed at 37°C in a shaking water bath for 20 min. Incubations were terminated by the addition of 4% acetic acid/96% methanol (0.2 mL) and then centrifuged at 20,500 ×g for 15 min. A 40 μL aliquot of the supernatant fraction was injected into the HPLC column. […] A gradient mobile phase consisting initially of 30 : 70, mobile phase A (acetonitrile) verse mobile phase B (0.5% formic acid/water) was brought to a composition of 90 : 10 in 10 min which was held for 7 min, all at a flow rate of 1 mL/min. Column eluant was monitored by UV absorbance 256 nm. […] The negative controls are the incubation without UDPGA.
# [1] = recombinant human UGT1A4, 50 μM TFP, mean ± SD, read-out: IC50 for inhibition of UGT1A4 activity
IC50,SMILES,IC50 [1]
> 100 µM,COc1ccc(-c2oc3c(CC=C(C)C)c(O)cc(O)c3c(=O)c2O)cc1 [Icaritin],
,COc1ccc(-c2oc3c(CC=C(C)C)c(O[C@@H]4O[C@H](CO)[C@@H](O)[C@H](O)[C@H]4O)cc(O)c3c(=O)c2O[C@@H]2O[C@@H](C)[C@H](O)[C@@H](O)[C@H]2O)cc1 [Icariin],42.8 ± 2.4 µM
,COc1ccc(-c2oc3c(CC=C(C)C)c(O[C@@H]4O[C@H](CO)[C@@H](O)[C@H](O)[C@H]4O)cc(O)c3c(=O)c2O)cc1 [Icariside I],> 100 µM
